According to patent US10471028B2, “Small molecule efflux pump inhibitors” (UNIVERSITY OF ROCHESTER, priority 2014, dated 2019):
Read-outs that look alike come from different tables or passages of the source.

What was measured:
[1] = test system: A. baumannii strain 98-37-09; assay: Cellular accumulation of minocycline (HPLC, triple-quadrupole MS); assay type: cell-based, Acinetobacter baumannii; settings: for Minocylcine Per Cell (femtomoles cell^−1): human serum with 0.5 μg mL^−1 minocycline plus test compound (0.5×MEC, 1×MEC), 48 hours
Protocol: High pressure liquid chromatography and triple-quadrupole mass spectrometry were used to measure the A. baumannii intracellular levels of minocycline during growth in human serum in the absence and presence of each putative efflux pump inhibitor. […] Cultures were incubated for 48 hours with shaking, at which point an aliquot was removed, serially diluted, and plated to determine the number of viable CFU per mixture. The remainder of the cells were pelleted by centrifugation at 900×g at 4° C., washed twice in PBS, mechanically lysed with a FastPrep cell disrupter (MP Biomedicals, Santa Ana, Calif.) for 20 seconds at 5 m s^−1 and the cellular debris was pelleted via centrifugation at 900×g and 4° C. The amount of minocycline present within the supernatant of ruptured cells was measured. Briefly, doxycycline (0.5 μg mL^−1) was first added to each supernatant to serve as an internal control to account for sample-to-sample preparation variability. The supernatant was then combined with acetonitrile (ACN) at a 1:10 ratio and centrifuged at 16,000×g, at 4° C., to collect minocycline and doxycycline. […] residual liquid was evaporated in a speed vacuum for 2 hours at 8,000×g. To quantify the amount of antibiotics retained, sample materials were suspended in 50% acetonitrile, filtered through a 0.2 μm low protein binding hydrophilic membrane (Millipore, Billerica, Mass.) then separated on Shimadzu high performance liquid chromatography instrument (Fisher Scientific) using a BetaBasic C18 reverse phase column (Thermo Scientific). Separation was carried out with two mobile phase solutions consisting of solution (A) water with 0.1% formic acid and solution (B) 100% ACN. The gradient profile of the chromatography runs was as follows: from 0 to 0.1 min 8% solution B, ramp step wise (37% to 60% solution B) from 0.1 to 6.5 min then holding for one minute before ramping down from 60% to 10% from 7.5 to 8 min. This was followed a hold at 10% solution B for one minute. […] The column was equilibrated in 8% solution B at 40° C. and the flow rate was set to 0.2 mL min^−1. Mass spectrometry analysis of fractions was carried out using a Thermo TSQ Quantum Ultra triple quadrupole mass spectrometer (Fisher Scientific). Data were analyzed using Xcalibur software (Thermo Scientific); the following parameters were used to detect minocycline and the internal control doxycycline: 458.208 m/z→282.971 m/z (collision energy=43, tube lens=119) for minocycline and 445.144 m/z→266.900 m/z (collision energy=39, tube lens=127) for doxycycline. Analysis of the raw data was conducted by using the area under the curve calculations with the Genesis algorithm to determine the concentration in each sample. The difference between the peak intensity and the y intercept of pre-established minocycline and doxycycline standard curves was divided by the slope of the standard curve to quantify the amount of minocycline within each sample. The total concentration of minocycline within each cell was calculated by normalizing to the number of cells within each corresponding culture.

[2] = test system: A. baumannii strain 98-37-09; assay: MEC determination: potentiation of minocycline toward serum grown A. baumannii; assay type: cell-based, Acinetobacter baumannii; settings: for Log-reduction Colony Forming Units (ml^−1): 1×MEC of compound plus minocycline in serum, versus minocycline alone, plating; for MEC: lowest concentration inhibiting growth in 100% human serum with 0.5 μg ml^−1 minocycline, 48 hr
Protocol: The TimTec ActiProbe-25K diversity-set and Natural Product compound libraries (29,900 compounds total; TimTec, Newark, Del.) were initially screened for putative efflux pump inhibitors by identifying compounds that potentiated the antimicrobial property of a sub-inhibitory concentration of minocycline toward A. baumannii grown in human serum. To do so, A. baumannii strain 98-37-09 was grown for 16 hours in LB medium at 37° C. on a rotary shaker at 225 rpm. Approximately 1×10^5 CFU were then transferred to individual wells of a 96-well round-bottom plate (Corning Costar, Tewksbury, Mass.) containing 100 μL of human serum supplemented with of minocycline (0.5 μg mL^−1; 0.5× minimum inhibitory concentration in serum) and individual members of the Timtec ActiProbe or Natural product library (50 μM). Plates were then incubated at 37° C. for 48 hours. Growth was measured as a function of turbidity. Putative efflux pump inhibitors were identified as compounds that inhibited A. baumannii growth in human serum containing minocycline and were subsequently retested in triplicate, as indicated above. Untreated A. baumannii grown in serum supplemented with minocycline+/−PAβN served as positive and negative controls, respectively. […] Repeat testing in which well constituents were serial diluted and plated on LB agar plates validated that 85 compounds did indeed limit A. baumannii growth in serum supplemented with minocycline, reducing the number of viable colony forming units between 2-6 log cfu in comparison to minocycline alone treated cells.
The MEC was defined as the lowest concentration of test compound required to inhibit the growth of A. baumannii in serum in the presence of 0.5 μg ml^−1 minocycline. Plating confirmed that addition of 1×MEC of each compound elicited ≥1.9-log reduction in A. baumannii cells grown in serum supplemented with minocycline alone (see Table 1).

human HepG2 cells = assay: MTT cell viability (cytotoxicity) assay
Protocol: To distinguish putatively non-toxic from human cytotoxic compounds, conventional 3-(4,5-dimethylthiazol-2yl)-2,5-diphenyltetrazolium bromide (MTT) cell viability assays (American Type Culture Collection, Manassas, Va.) were performed for each compound of interest at 1× and 4× their MEC. Briefly, human HepG2 cells were grown to approximately 1×10^6 cells per well in Dulbecco's Modified Eagle Media supplemented with 10% fetal bovine serum (Invitrogen, Carlsbad, Calif.) then treated with 1× or 4× the MEC of the indicated […] Cell viability was measured following the addition of the tetrazolium salt (MTT) as per the manufacturer's recommendations; cells challenged with 50 ug ml^−1 Mitomycin C (Sigma Aldrich) and mock-treated cells served as positive and negative controls, respectively.

## CCOc1ccccc1C(=O)Nc1sc2c(c1C(=O)OC(C)C)CCCC2 [ST009896]
[1]
  Minocylcine Per Cell (femtomoles cell^−1): 3.99E−05 femtomoles cell^−1
[2]
  Log-reduction Colony Forming Units (ml^−1): 2.45 log
  MEC: 2 µg/mL
Human HepG2 cells
  % Viability: 73.54%

## COc1ccc(OC)c(/C=N/c2ccc(S(N)(=O)=O)cc2)c1 [ST016443]
[1]
  Minocylcine Per Cell (femtomoles cell^−1): 4.4E−04 femtomoles cell^−1
[2]
  Log-reduction Colony Forming Units (ml^−1): 2.00 log
  MEC: 2 µg/mL
Human HepG2 cells
  % Viability: 57.49%

## COc1cc(/C=N/NC(=O)c2sc3ccccc3c2Cl)cc(OC)c1OC [ST033346]
[1]
  Minocylcine Per Cell (femtomoles cell^−1): 3.615E−07 femtomoles cell^−1
[2]
  Log-reduction Colony Forming Units (ml^−1): 2.00 log
  MEC: 2 µg/mL
Human HepG2 cells
  % Viability: 74.67%

## CCOc1ccc(/C=N/c2ccc(S(N)(=O)=O)cc2)cc1 [ST009694]
[1]
  Minocylcine Per Cell (femtomoles cell^−1): 6.8E−07 femtomoles cell^−1
[2]
  Log-reduction Colony Forming Units (ml^−1): 6.24 log
  MEC: 4 µg/mL
Human HepG2 cells
  % Viability: 74.6%

## O=[N+]([O-])c1cc2c(cc1/C=N/c1ccc(S(=O)(=O)Nc3nccs3)cc1)OCO2 [ST012902]
[1]
  Minocylcine Per Cell (femtomoles cell^−1): 1.1E−05 femtomoles cell^−1
[2]
  Log-reduction Colony Forming Units (ml^−1): 3.71 log
  MEC: 2 µg/mL
Human HepG2 cells
  % Viability: 55.1%

## O=[N+]([O-])c1cccc(/C=N/c2ccc(S(=O)(=O)Nc3nccs3)cc2)c1 [ST012961]
[1]
  Minocylcine Per Cell (femtomoles cell^−1): 1.13E−04 femtomoles cell^−1
[2]
  Log-reduction Colony Forming Units (ml^−1): 6.23 log
  MEC: 32 µg/mL
Human HepG2 cells
  % Viability: 59.32%

## NS(=O)(=O)c1ccc(/N=C/c2ccc(Br)cc2)cc1 [ST009699]
[1]
  Minocylcine Per Cell (femtomoles cell^−1): 1.15E−04 femtomoles cell^−1
[2]
  Log-reduction Colony Forming Units (ml^−1): 6.84 log
  MEC: 2 µg/mL
Human HepG2 cells
  % Viability: 70.45%

## CN(C)c1ccc(O)c2c1C[C@H]1C[C@H]3[C@H](N(C)C)C(O)=C(C(N)=O)C(=O)[C@@]3(O)C(O)=C1C2=O [minocycline, reference compound]
[1]; growth in serum (efflux active conditions), minocycline without efflux inhibitor
  cellular minocycline concentration: 1.58×10^−10 femtomoles per bacterial cell
Human HepG2 cells; minocycline tested alone at 2 μg ml^−1
  HepG2 survival: 77.9%

## NS(=O)(=O)c1ccc(/N=C/c2ccc(F)cc2)cc1 [ST009698]
[1]
  Minocylcine Per Cell (femtomoles cell^−1): 1.52E−05 femtomoles cell^−1
[2]
  Log-reduction Colony Forming Units (ml^−1): 6.45 log
  MEC: 64 µg/mL
Human HepG2 cells
  % Viability: 73.56%

## O=C(c1ccc(Cl)cc1Cl)n1cc([N+](=O)[O-])cn1 [ST033231]
[1]
  Minocylcine Per Cell (femtomoles cell^−1): 3.42E−06 femtomoles cell^−1
[2]
  Log-reduction Colony Forming Units (ml^−1): 1.91 log
  MEC: 32 µg/mL
Human HepG2 cells
  % Viability: 70.87%

## O=C(c1ccc([N+](=O)[O-])cc1Cl)N1CCCc2ccccc21 [ST011123]
[1]
  Minocylcine Per Cell (femtomoles cell^−1): 1.19E−05 femtomoles cell^−1
[2]
  Log-reduction Colony Forming Units (ml^−1): 2.83 log
  MEC: 32 µg/mL
Human HepG2 cells
  % Viability: 67.89%

## CC1CCN(Cc2cc(Cl)c3cccnc3c2O)CC1 [ST007924]
[1]
  Minocylcine Per Cell (femtomoles cell^−1): 5.12E−05 femtomoles cell^−1
[2]
  Log-reduction Colony Forming Units (ml^−1): 2.42 log
  MEC: 4 µg/mL
Human HepG2 cells
  % Viability: 67.45%

## c1ccc(CN2CCN(Cc3ccccc3)C2c2cccs2)cc1 [ST007852]
[1]
  Minocylcine Per Cell (femtomoles cell^−1): 5.9E−05 femtomoles cell^−1
[2]
  Log-reduction Colony Forming Units (ml^−1): 4.21 log
  MEC: 4 µg/mL
Human HepG2 cells
  % Viability: 65.77%

## COc1ccc(O)c(/C=N/N=C/c2cc(OC)ccc2O)c1 [ST020959]
[1]
  Minocylcine Per Cell (femtomoles cell^−1): 1.27E−04 femtomoles cell^−1
[2]
  Log-reduction Colony Forming Units (ml^−1): 6.90 log
  MEC: 2 µg/mL
Human HepG2 cells; human, 48 h, 4 ×MEC
  % Viability: 51.04%

## CCc1ccc(/C=N/c2ccc(S(N)(=O)=O)cc2)cc1 [ST016444]
[1]
  Minocylcine Per Cell (femtomoles cell^−1): 2.02E−05 femtomoles cell^−1
[2]
  Log-reduction Colony Forming Units (ml^−1): 4.86 log
  MEC: 16 µg/mL
Human HepG2 cells
  % Viability: 53.92%

## Cc1nnc(SCC2=C(C(=O)[O-])N3C(=O)[C@@H](NC(=O)Cn4cnnn4)[C@H]3SC2)s1.[Na+] [ST024775]
[1]
  Minocylcine Per Cell (femtomoles cell^−1): 1.72E−05 femtomoles cell^−1
[2]
  Log-reduction Colony Forming Units (ml^−1): 4.84 log
  MEC: 16 µg/mL
Human HepG2 cells; HepG2 cellular survival at 4×MEC
  % Viability: 41.62%

## N=C(N)NS(=O)(=O)c1ccc(/N=C/c2c(O)ccc3ccccc23)cc1 [ST012929]
[1]
  Minocylcine Per Cell (femtomoles cell^−1): 2.74E−08 femtomoles cell^−1
[2]
  Log-reduction Colony Forming Units (ml^−1): 4.64 log
  MEC: 32 µg/mL

## NS(=O)(=O)c1ccc(/N=C/c2cc(Br)ccc2O)cc1 [ST010344]
[1]
  Minocylcine Per Cell (femtomoles cell^−1): 2.98E−08 femtomoles cell^−1
[2]
  Log-reduction Colony Forming Units (ml^−1): 5.29 log
  MEC: 32 µg/mL

## COc1ccc(/C=N/c2ccc(S(N)(=O)=O)cc2)c(OC)c1 [ST016442]
[1]
  Minocylcine Per Cell (femtomoles cell^−1): 1.96E−04 femtomoles cell^−1
[2]
  Log-reduction Colony Forming Units (ml^−1): 3.88 log
  MEC: 2 µg/mL
Human HepG2 cells
  % Viability: 53.43%

## Cc1cccc(N(CC(=O)NC23CC4CC(CC(C4)C2)C3)S(=O)(=O)c2ccccc2)c1 [ST034012]
[1]
  Minocylcine Per Cell (femtomoles cell^−1): 1.55E−07 femtomoles cell^−1
[2]
  Log-reduction Colony Forming Units (ml^−1): 2.00 log
  MEC: 2 µg/mL

## Cc1ccc(/C=N/c2ccc(S(N)(=O)=O)cc2)cc1 [ST009696]
[1]
  Minocylcine Per Cell (femtomoles cell^−1): 8.2E−09 femtomoles cell^−1
[2]
  Log-reduction Colony Forming Units (ml^−1): 5.67 log
  MEC: 4 µg/mL
